Reference: patent publication US5773438A, “Synthetic matrix metalloprotease inhibitors and use thereof” (Glycomed Incorporated, priority 1994, dated 1998)
Entries after “also recorded” stand apart in the source; their conditions may differ.

Experiments:
[1] = biological target: Stromelysin (Homo sapiens, UniProt P08254); assay: inhibition of stromelysin (Table 2); assay type: biochemical; conditions: read-out: Strom inhibitory activity
Description: Specifically, assay of inhibition activity can be conducted as follows. […] Assays for inhibition of human stromelysin are conducted as described by Teahan, J., et al., Biochemistry (1989) 20:8497-8501.
Assay of inhibition activity can be conducted using a fluorogenic substrate developed by Knight et al., FEBS Letters (1992) 296:263. This method uses a fluorometer to determine the rate of substrate hydrolysis in a 96 well plate format. Reaction rates are determined at several substrate concentrations, and multiple inhibitor levels. The data are analyzed by Lineweaver-Burk, Dixon and Henderson plot analyses (Enzyme Kinetics (1975) Irwin Segal (John Wiley & Sons, Inc., publishers), and as described by Henderson, Biochem J. (1972) 127:321). The substrate levels range from 10-30μM. […] Inhibitors may be assayed against purified 72 kD gelatinase, 92 kD gelatinase, neutrophil collagenase, stromelysin or other proteases as appropriate. The enzymes are activated at 37° C. with APMA (4-aminophenylmercuric acetate), and the assays are carried out at room temperature.

[2] = test system: PdiBu-Induced Epidermal Hyperplasia; assay: PdiBu-induced epidermal hyperplasia mouse model (psoriasis); assay type: in vivo, hairless mice
Description: The phorbol ester, PdiBu (20 nmol in 20 μl if acetone) was applied to both ears of hairless mice (h/h) (approximately 1 cm^2 each). The test compounds (in total volume of 20 μl) were then applied to the right ear immediately (15 to 30 min) following PdiBu. The left ear of each animal received an equivalent amount (20 μl) of vehicle. Test compounds (and vehicle) were reapplied at 6 and 18 hours following PdiBu. Treatment times were staggered to allow exact time intervals to be obtained. At 30 hours after PdiBu, animals were anesthetized, and ear thickness values were obtained using a microcaliper. The weights of punch biopsies (6mm) were then obtained. Histology was performed on selected samples taken at 30 hours.
Left ear in each animal served as vehicle-treated controls (PdiBu+ETOH). Thus, the controls for this series include: 1) Untreated controls; 2) PdiBu plus vehicle alone (included for each mouse tested); 3) PdiBu plus AHA; 4) PdiBu plus Lidex® as a positive control.

[3] = test system: protease activity of chronic wound fluid; assay: Azocoll assay of protease activity in chronic wound fluid; assay type: biochemical, human
Description: (§1) Fluids were collected from 3 types of human wounds termed closed spontaneously healing wounds, open slowly healing wounds, and open chronic wounds. In the first category were fluids collected from the chest wall of women following mastectomy surgery. Fluids from non-infected wounds that were left open for valid surgical reasons were considered open slowly healing wounds. An occlusive dressing was placed over the wound bed, and fluids were collected after 2-6 hours of occlusion. Finally, fluids were also collected from chronic open wounds by covering the wounds with occlusive dressings. Wounds were considered to be chronic if they were not clinically infected and had been open and not healing for more than 4 weeks.
(§2) The various wound fluids were assayed for matrix metalloproteinase activity using the Azocoll assay essentially as described by Chavira, et al., Analytic Biochemistry (1984), 136:446.
(§3) The fluids were centrifuged, and the supernatants filtered using a 0.45μ sterile Gelman filter. The filtrates were stored frozen at -80° C. until tested for protease activity.
(§4) The effects of four inhibitors on the protease activity present in wound fluids were determined. The inhibitors were: compounds
Stock solutions of the four inhibitors were all prepared at a concentration of 800 μg/ml. Due to different solubility properties of the inhibitors, different techniques were utilized. […] S1209 was dissolved in 1% DMSO then dissolved in 10 mM citrate, pH 5.5, containing 0.05% methyl cellulose. 39A was dissolved in propylene glycol (to give a final concentration of 2.4%) then dissolved in 1 mM CaCl2, 50 mM Tris-Cl, pH 7.8. 21A was dissolved in propylene glycol (2.4%) methyl cellulose (0.05%) and 10 mM citrate, pH 8.
The protease substrate, Azocoll, was obtained from Sigma Chemical Corporation and it is a substrate for collagenase/gelatinase-like metalloproteinase enzymes and general proteases. Clostridium histolyticum collagenase (the crude form of the enzyme) was from Worthington Biochemicals. General chemicals including TRIS buffer, DMSO, and CaCl2 were from Sigma Chemical Corporation.
(§5) Briefly, 900 μl of the Azocoll substrate suspension in buffer ([…] in 50 mM TRIS, pH 7.8, 1 mM CaCl2) was added to 1.5 ml microcentrifuge tubes then 50 μl of inhibitor (or buffer) and 50 μl of chronic wound fluid (or collagenase standard) were added to the reaction tube. The reaction tubes were placed at 37° C. in a shaker that inverted the tubes 30 times per minute. After 24 hours of incubation, the reaction tubes were centrifuges at 10,000 X g and the absorbance of the supernatant solution was measured at 520 nm with a Milton-Roy spectrophotometer. Proteolysis of Azocoll substrate generates soluble colored fragments from the insoluble Azocoll substrate. Wound fluid samples were incubated alone or with the inhibitors. Controls included incubation of the Azocoll substrate with the assay buffer to measure spontaneous degradation of the substrate. A standard curve for digestion of the Azocoll substrate was generated by incubation of the Azocoll with crude bacterial collagenase. Protease levels were expressed as net μg of collagenase equivalent per ml of chronic wound fluid. In the figures, certain of the wound fluids are referred to by an individual name.
For these experiments, due to the different solubility properties of the inhibitors, different techniques were utilized. […] S1209 was dissolved in 1% DMSO then dissolved in 10 mM citrate, pH 5.5, containing 0.05% methyl cellulose. 39A was dissolved in propylene glycol (to give a final concentration of 2.4%) then dissolved in 1 mM CaCl2, […] Tris-Cl, pH 7.8. 21A was dissolved in propylene glycol (2.4%) methyl cellulose (0.05%) and 10 mM citrate, pH 8.

[4] = test system: protease activity in open and chronic wound fluids; assay: Azocoll assay of protease activity in open and chronic wound fluids; assay type: biochemical, human
Description: as §1, §2, §3, §4
These inhibitors were compared to certain other inhibitors and these were UL001 [HSCH2 CH(CH2 CH(CH3)2)CO--Phe--Ala--NH2 ] obtained from Peptides International and MP506, obtained from Elastin Products. EDTA (ethylenediamine tetraacetic acid) and PMSF (phenylmethylsulfonyl fluoride) were also studied.
as §5

[5] = test system: infiltration of neutrophils in the peritoneal cavity; assay: thioglycollate induced peritonitis assay; assay type: in vivo, Balb/c male mice; conditions: 800 μg/ml, 1 ml/animal i.p. at 0.5, 1.0, 2.0 hr; p=0.0141
Description: 6-8 week old Balb/c male mice were used (n=10 each for the treated and control groups). Thioglycollate suspension (5.9 g/l in deionized water) was boiled until the color was golden, then cooled yielding a pink color. The lavage solution consisted of saline supplemented with 0.1% bovine serum albumin (100 mg/100 ml) and 5U heparin/ml.
Cells were collected by lavage at T=3.0 hr. post thioglycollate administration. The animals were euthanized by CO2 asphyxiation, and the abdominal skin was cut with surgical scissors to reveal the peritoneal cavity. Five ml of lavage fluid was injected into the peritoneum, and a suspension was made by gentle massage. The fluid was removed by syringe, recovering about 80% of the injected fluid. Total cell counts in the lavage fluid were determined by Coulter Counter.

Sequence of Stromelysin (P08254 100-477): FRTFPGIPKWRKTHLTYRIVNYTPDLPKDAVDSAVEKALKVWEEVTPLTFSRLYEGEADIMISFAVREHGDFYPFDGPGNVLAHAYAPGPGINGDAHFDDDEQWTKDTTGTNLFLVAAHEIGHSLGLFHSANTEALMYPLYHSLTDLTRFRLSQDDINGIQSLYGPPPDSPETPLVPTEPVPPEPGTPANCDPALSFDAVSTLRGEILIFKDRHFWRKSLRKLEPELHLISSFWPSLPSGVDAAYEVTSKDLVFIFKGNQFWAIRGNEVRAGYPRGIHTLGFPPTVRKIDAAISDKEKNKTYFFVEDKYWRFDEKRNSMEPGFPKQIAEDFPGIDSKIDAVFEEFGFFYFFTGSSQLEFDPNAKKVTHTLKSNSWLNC

For `CNC(=O)[C@H](Cc1c[nH]c2ccccc12)NC(=O)[C@@H](CC(=O)NO)CC(C)C` [Compound 5A, N-[D,L-2-isobutyl-3-(N'-hydroxycarbonylamido)-propanoyl]-tryptophan methylamide], the Ki [1] was 27 nM, the skin biopsy weight ([2]; PdiBu + 5A, 0.51 μmol/ear at 0.25 and 24 hours, 6 mm punch) was 13.4 ± 1.5 mg and the “skin biopsy weight, % of Control” value ([2]; PdiBu + 5A, 0.51 μmol/ear at 0.25 and 24 hours, of untreated control) was 146%. For the same compound, the ear thickness ([2]; PdiBu + 5A, topical 0.51 μmol/ear) was 18.6 ± 1.6 inch × 10^-3, the “ear thickness, % of Control” value ([2]; PdiBu + 5A, topical 0.51 μmol/ear, of untreated control) was 140% and the PdiBu-induced epidermal hyperplasia ([2]; histology) was “inhibited; also recorded: completely prevents; also recorded: decreased inflammation and epidermal hyperplasia”. The “PdiBu-induced extravasation of RBC's” value ([2]; histology) was “inhibited”, the “PdiBu-induced migration of inflammatory cells into dermis and epidermis” value ([2]; histology) was “inhibited” and the epidermal morphology ([2]; histology) was “more normal appearing epidermal morphology”. For the same compound, the anti-inflammatory activity ([2]; in vivo model for psoriasis) was “potent anti-inflammatory activity; also recorded: nearly comparable to that observed with Lidex®”, the “effect on PdiBu-induced ear thickness” value ([2]; topical) was “significantly inhibited” and the “effect on PdiBu-induced increase in punch biopsy weight” value ([2]; topical) was “significantly inhibited”. The “effective concentrations (order of magnitude)” value ([3]; FIG. 4) was “μM”, the “inhibition of protease activity of a chronic wound fluid” value ([3]; FIG. 4) was “effectively inhibited; also recorded: much more potent that EDTA” and the “inhibition of proteolytic degradation of Azocoll” value ([3]; FIG. 4, 0.4 μg/ml (0.1 μM)) was “approximately 92%”. For the same compound, the “inhibition of proteolytic degradation of Azocoll” value ([3]; FIG. 4, 4 μg/ml (1 μM)) was “approximately 92%”, the “inhibition of proteolytic degradation of Azocoll” value ([3]; FIG. 4, 4 μg/ml (10 μM)) was “approximately 96%” and the “inhibition of proteolytic degradation of Azocoll” value ([3]; FIG. 4, 40 μg/ml (100 μM)) was “approximately 96%”. For the same compound, the “protease activity of chronic wound fluid after addition of inhibitor” value ([3]; FIG. 7, 800 μg/ml, untreated 284±52) was 45±1 μg collagenase equivalents/ml of wound fluid, the “inhibition of protease activity of chronic wound fluid” value ([3]; FIG. 7, highest concentration (800 μg/ml)) was 84% and the “protease activity of chronic wound fluid after addition of inhibitor, lower concentrations” value ([3]; FIG. 7, lower concentrations, untreated 284±52) was “up to 90±6 μg collagenase equivalents/ml of wound fluid”. For the same compound, the “effect on proteolytic activity of open and chronic wound fluids” value ([4]; FIG. 5) was “very effective inhibitors”, the “inhibition of Azocoll-degrading proteases in wound fluids” value ([4]; FIG. 6) was “very effectively; also recorded: very effective inhibitors” and the “reduction of proteolytic activity in open or chronic wound fluids” value ([4]; fluids with high levels of Azocoll-degrading protease activity) was 95%. For the same compound, the “average number of cells in the peritoneum versus vehicle” value [5] was “significantly reduced”.
